{"source": "patent US20060128605A1", "about": "“Preventives/remedies for snore or respiratory disturbances during sleep” (AJINOMOTO CO. INC, priority 2003, published 2006)", "key": {"sleep apnea syndrome": {"tested_on": "sleep apnea syndrome", "details": "animal experiments using rats; cited from earlier work"}, "[1]": {"tested_on": "snoring of the test recipient during sleep", "experiment": "snoring evaluation by a family member after tablets taken before bedtime", "type": "in vivo, human", "details": "Experiment 1", "procedure": "(§1) In addition, sleep apnea and arterial blood oxygen saturation (SpO2) were evaluated using a sleep tester LT-200 manufactured by FUKUDA DENSHI Co., Ltd. (Japan). […] The test recipient was completely free of regular medication, and had no habit of taking nutritional supplements or nutritional supports. […] The test recipient took an appropriate number (2-4) of the glycine tablets or the control tablets, and interviewed a family member the next morning as to the presence or absence of snoring and the level thereof, without informing the family member of the kind of the tablets and whether they took the tablets.\nThe presence or absence of snoring during sleep was evaluated the next morning by a family member into three levels of minus (−; snoring was not heard or like sleep breath), plus (+; medium level snoring), two plus (++; extremely noisy and severe snoring). The presence or absence of snoring when the glycine tablets and control tablets were taken before bedtime, and nothing was taken before bedtime was counted."}, "[2]": {"tested_on": "male adults having sleep apnea syndrome", "details": "glycine 3 g 1 hour before sleep", "procedure": "For confirmation of the effect of glycine on respiratory disorders during sleep, a double blind crossover test was performed with 10 male adults having sleep apnea syndrome as evidenced by more than 5 of the following AHI (apnea hypopnea index per 1 hour). Glycine (3 g) was administered 1 hour before sleep and, as the placebo, maltose adjusted to an indistinguishable taste was used.\nSleep polygraph data such as electroencephalogram, electromyogram, arterial blood oxygen saturation, and the like during sleep were measured using the Alice system manufactured by Respironics Co., Ltd. (USA). The air flow of the mouth-nose part was measured, and hypopnea was defined to mean a state where a decrease to not more than 50% requires not less than 10 second to recover to not less than 60%. Furthermore, a decrease in the arterial blood oxygen saturation by not less than 3% associated with hypopnea was taken as apnea. The total of the incidents of apnea and hypopnea per 1 hour was taken as an apnea hypopnea index (AHI) and used as a severity index of respiratory disorder during sleep."}, "[3]": {"tested_on": "sleep apnea and SpO2 decrease during sleep", "details": "Experiment 3, glycine tablets (4 tablets) before bedtime", "procedure": "as §1\nThe arterial blood oxygen saturation (SpO2) and air flow in the mouth-nose during sleep were measured using a sleep tester LT-200 manufactured by FUKUDA DENSHI Co., Ltd. The arterial blood oxygen saturation (SpO2) was measured using a sensor attached to the tip of the second finger of the left hand, and a decrease in the arterial blood oxygen saturation (SpO2) to not more than 93% which lasted for not less than 10 seconds was taken as SpO2 decrease. The number of SpO2 decrease per one day and per one hour and the minimum SpO2 of one day were determined. The air flow in the mouth-nose part was measured by a thermocapsule method, and a decrease in the flow in the mouth-nose part to not more than 50% which lasted for not less than 10 sec was defined as hypopnea. The occurrence of SpO2 decrease along with hypopnea was counted as apnea and the number of apnea per one day and per one hour was determined. Simultaneously, tracheal sounds during sleep were picked up through a mike set near laryngeal prominence.\nThe sleep apnea suppressing effect of glycine was evaluated. […] Tracheal sounds during sleep, which is considered to reflect the snoring sound, were simultaneously recorded."}, "[4]": {"details": "2 glycine tablets (glycine 490 mg) before bedtime, 9 days of observation"}, "[5]": {"details": "4 glycine tablets (glycine 980 mg) before bedtime, 8 days of observation"}, "[6]": {"details": "SpO2 not more than 93% for not less than 10 seconds"}}}
{"smiles": "Nc1nc2ccc(OC(F)(F)F)cc2s1", "note": "[riluzole]", "values": [{"measurement": "effectiveness for the treatment of sleep apnea syndrome", "setting": "sleep apnea syndrome", "result": "has been confirmed"}]}
{"smiles": "NCC(=O)O", "note": "[glycine]", "values": [{"measurement": "snoring evaluation results ++, number of days (severe snoring)", "setting": "[1]; [4]", "result": 2, "unit": "days"}, {"measurement": "snoring evaluation results ++, percentage of total observation days", "setting": "[1]; [4]", "result": "(22%)"}, {"measurement": "snoring evaluation results +, number of days (medium level snoring)", "setting": "[1]; [4]", "result": 3, "unit": "days"}, {"measurement": "snoring evaluation results +, percentage of total observation days", "setting": "[1]; [4]", "result": "(33%)"}, {"measurement": "snoring evaluation results −, number of days (snoring not heard or like sleep breath)", "setting": "[1]; [4]", "result": 4, "unit": "days"}, {"measurement": "snoring evaluation results −, percentage of total observation days", "setting": "[1]; [4]", "result": "(44%)"}, {"measurement": "snoring evaluation results ++, number of days (severe snoring)", "setting": "[1]; [5]", "result": 0, "unit": "days"}, {"measurement": "snoring evaluation results ++, percentage of total observation days", "setting": "[1]; [5]", "result": "(0% a))"}, {"measurement": "snoring evaluation results +, number of days (medium level snoring)", "setting": "[1]; [5]", "result": 2, "unit": "days"}, {"measurement": "snoring evaluation results +, percentage of total observation days", "setting": "[1]; [5]", "result": "(25%)"}, {"measurement": "snoring evaluation results −, number of days (snoring not heard or like sleep breath)", "setting": "[1]; [5]", "result": 6, "unit": "days"}, {"measurement": "snoring evaluation results −, percentage of total observation days", "setting": "[1]; [5]", "result": "(75%)"}, {"measurement": "average value of AHI, test recipients of 40 years old or over with BMI exceeding 28", "setting": "[2]; 4 cases, placebo 18.9 (p=0.046)", "result": 10.6}, {"measurement": "average value of AHI, test recipients of 40 years old or over", "setting": "[2]; 6 cases, entire sleep stage, placebo 17.2 (p=0.062)", "result": 11.5}, {"measurement": "respiratory disorder (hypopnea or apnea, AHI) in the early stage of sleep", "setting": "[2]; early stage of sleep (3 hours), FIG. 4 right graph", "result": "improved"}, {"measurement": "average value of AHI, nonrem sleep stage (NREM)", "setting": "[2]; entire sleep stage, 10 male adults, placebo 11.3", "result": 10.8}, {"measurement": "average value of AHI, entire period (Total) of rem and nonrem sleep stage", "setting": "[2]; entire sleep stage, 10 male adults, placebo 15.0", "result": 13.4}, {"measurement": "average value of AHI, rem sleep stage (REM)", "setting": "[2]; entire sleep stage, 10 male adults, placebo 33.5", "result": 26.8}, {"measurement": "SpO2 lowest value during sleep", "setting": "[3]", "result": "88 ± 1", "unit": "%"}, {"measurement": "apnea (times/day)", "setting": "[3]", "result": "11 ± 4", "unit": "times/day"}, {"measurement": "apnea (times/hr)", "setting": "[3]", "result": "1.9 ± 0.9", "unit": "times/hr"}, {"measurement": "SpO2 decrease (times/day)", "setting": "[3]; [6]", "result": "14 ± 5", "unit": "times/day"}, {"measurement": "SpO2 decrease (times/hr)", "setting": "[3]; [6]", "result": "2.5 ± 1.2", "unit": "times/hr"}]}
